Test results from patent US20190350895A1, “PHOTOCHROMATIC MODULATION WITH FLUORESCEIN FOR THE TREATMENT OF PHOTO-OCULODYNIA AND BLEPHAROSPASM” (Baylor College of Medicine, priority 2016, published 2019).

Key:
[1] = test system: patients with essential blepharospasm; test: Blink rate before and immediately after placement of a scleral contact lens with fluorescein dye in the fluid reservoir; assay type: in vivo, human; conditions: immediately after placement of scleral lens with saline mixed with fluorescein dye
Method: (§1) All patients in the study have an established diagnosis of essential blepharospasm currently managed with botulinum toxin injections. Prior to treatment with the fluorescein dye, patients are evaluated for their blink rate as determined by the number of blinks per minute. Patients are also evaluated using the Jankovic rating scale which has 2 components: 1. The severity of the eyelid spasms are rated from 0-4 (0=no spasms, 4=severe incapacitating spasms) and, 2. The frequency of spasms are rated from 0-4 (0=no spasms, 4=persistent eye closure). The sum of the severity score and the frequency score is then computed. Patients are then fitted with a scleral contact lens with normal saline solution mixed with fluorescein dye placed in the fluid reservoir. The blink rate and JRS sum score are then assessed immediately after placement of the lens.

[2] = test system: patients with essential blepharospasm; test: Jankovic rating scale (JRS) sum score, severity plus frequency of eyelid spasms, before and immediately after lens placement; assay type: in vivo, human; conditions: sum of severity (0-4) and frequency (0-4) scores immediately after lens placement
Method: as §1

Compound: O=C1OC2(c3ccc(O)cc3Oc3cc(O)ccc32)c2ccccc21 [fluorescein]
- Post blink-rate ([1]; Patient 1, pre blink-rate 80): 10 blinks per minute
- Post blink-rate ([1]; Patient 2, pre blink-rate 50): 20 blinks per minute
- Post blink-rate ([1]; Patient 3, pre blink-rate 60): 40 blinks per minute
- Post blink-rate ([1]; Patient 4, pre blink-rate 70): 35 blinks per minute
- Post blink-rate ([1]; Patient 5, pre blink-rate 70): 49 blinks per minute
- Post JRS ([2]; Patient 1, pre JRS 7): 1
- Post JRS ([2]; Patient 2, pre JRS 6): 3
- Post JRS ([2]; Patient 3, pre JRS 6): 4
- Post JRS ([2]; Patient 4, pre JRS 7): 4
- Post JRS ([2]; Patient 5, pre JRS 7): 3
